Experimental data as given in patent US10717730B1, “Dihydroisoquinoline compound” (SUZHOU ARK BIOPHARMACEUTICAL CO., LTD., priority 2017, dated 2020).

Assays:
[1] = Cytotoxicity CC50 (CellTiter-Glo); type: cell-based; settings: human; HepG2.2.15 cells, four days
Procedure: HepG2.2.15 cells were seeded into 96-well white plate at 5000 cells/well and treated with serially diluted compounds. The plates were incubated in incubator with 5% CO2 at 37° C. for four days. The plate was taken out of incubator and adapted to room temperature for 30 minutes, followed by adding 25 μl CellTiter-Glo (Promega) reagent into each well and votexed at room temperature before being measured for luminance using spectrometer (Tecan Infinite® F200). The CC50 of each compound was defined as the compound concentration at which the treated well's cell viability is 50% compared to that of the DMSO treated well.

HBsAg = HBsAg assay (secreted HBsAg by CLIA in HepG2.2.15 cells); type: cell-based, hepatitis B virus (HBV); settings: Hepatitis B virus, HepG2.2.15, 96 h
Method in brief: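 HepG2.2.15 cells were exposed to a five-fold compound dilution series (0.5% DMSO final) for four days. Secreted HBsAg in supernatant quantified by chemiluminescence immunoassay; IC50 extrapolated from dose-response curves.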

Row | SMILES | CC50 at 4 days [1] [µM] | IC50 (HBsAg) [µM]
1 | COc1cc2c(cc1-c1ccc(N3CCC3)nc1)CC(C(C)(C)C)n1cc(C(=O)O)c(=O)cc1-2 (stereo not shown) [Example 50, 9-(6-(azetidin-1-yl)pyridin-3-yl)-6-(tert-butyl)-10-methoxy-2-oxo-6,7-dihydro-2H-pyrido[2,1-a]isoquinoline-3-carboxylic acid] | 50 to 100 | 0.0005
2 | COc1cc2c(cc1-c1ccc(N3CCC(O)CC3)nc1)CC(C(C)(C)C)n1cc(C(=O)O)c(=O)cc1-2 (stereo not shown) [Example 51, 6-(tert-butyl)-9-(6-(4-hydroxypiperidin-1-yl)pyridin-3-yl)-10-methoxy-2-oxo-6,7-dihydro-2H-pyrido[2,1-a]isoquinoline-3-carboxylic acid] | > 100 | 0.0008
3 | CNc1ncc(-c2cc3c(cc2OC)-c2cc(=O)c(C(=O)O)cn2C(C(C)(C)C)C3)cn1 (stereo not shown) [Example 60, 6-(tert-butyl)-10-methoxy-9-(2-(methylamino)pyrimidin-5-yl)-2-oxo-6,7-dihydro-2H-pyrido[2,1-a]isoquinoline-3-carboxylic acid] | 50 to 100 | 0.0001
4 | CCN1CCN(c2ncc(-c3cc4c(cc3OC)-c3cc(=O)c(C(=O)O)cn3C(C(C)(C)C)C4)cn2)CC1 (stereo not shown) [Example 63, 6-(tert-butyl)-9-(2-(4-ethylpiperazin-1-yl)pyrimidin-5-yl)-10-methoxy-2-oxo-6,7-dihydro-2H-pyrido[2,1-a]isoquinoline-3-carboxylic acid] | 50 to 100 | 0.027
5 | COc1cc2c(cc1-c1cnc(N3CCC3)nc1)CC(C(C)(C)C)n1cc(C(=O)O)c(=O)cc1-2 (stereo not shown) [Example 69, 9-(2-(azetidin-1-yl)pyrimidin-5-yl)-6-(tert-butyl)-10-methoxy-2-oxo-6,7-dihydro-2H-pyrido[2,1-a]isoquinoline-3-carboxylic acid] | 50 to 100 | 0.005
6 | CCOC(=O)c1cn2c(cc1=O)-c1cc(OC)c(-c3ccc(=O)n(C(C)(C)C(=O)OCC)c3)cc1CC2C(C)(C)C (stereo not shown) [Example 70, Ethyl 6-(tert-butyl)-9-(1-(1-ethoxy-2-methyl-1-oxoprop-2-yl)-6-oxo-1,6-dihydropyridin-3-yl)-10-methoxy-2-oxo-6,7-dihydro-2H-pyrido[2,1-a]isoquinoline-3-carboxylate] | 50 to 100 | 0.044
7 | CCOC(=O)Cn1cc(-c2cc3c(cc2OC)-c2cc(=O)c(C(=O)OCC)cn2C(C(C)(C)C)C3)ccc1=O (stereo not shown) [Example 71, Ethyl 6-(tert-butyl)-9-(1-(2-ethoxy-2-oxoethyl)-6-oxo-1,6-dihydropyridin-3-yl)-10-methoxy-2-oxo-6,7-dihydro-2H-pyrido[2,1-a]isoquinoline-3-carboxylate] | > 100 | 0.192
8 | CCOC(=O)CCn1cc(-c2cc3c(cc2OC)-c2cc(=O)c(C(=O)OCC)cn2C(C(C)(C)C)C3)ccc1=O (stereo not shown) [Example 72, Ethyl 6-(tert-butyl)-9-(1-(3-ethoxy-3-oxopropyl)-6-oxo-1,6-dihydropyridin-3-yl)-10-methoxy-2-oxo-6,7-dihydro-2H-pyrido[2,1-a]isoquinoline-3-carboxylate] | 50 to 100 | 0.565
9 | COc1cc2c(cc1-c1cnc(N3CCC(C(=O)O)CC3)nc1)CC(C(C)(C)C)n1cc(C(=O)O)c(=O)cc1-2 (stereo not shown) [Example 73, 6-(tert-butyl)-9-(2-(4-carboxypiperidin-1-yl)pyrimidin-5-yl)-10-methoxy-2-oxo-6,7-dihydro-2H-pyrido[2,1-a]isoquinoline-3-carboxylic acid] | > 100 | 0.067
10 | CCOC(=O)c1cn2c(cc1=O)-c1cc(OC)c(-c3ccc(=O)n(C(C)C(=O)OCC)c3)cc1CC2C(C)(C)C (stereo not shown) [Example 74, Ethyl 6-(tert-butyl)-9-(1-(1-ethoxy-1-oxoprop-2-yl)-6-oxo-1,6-dihydro-pyridin-3-yl)-10-methoxy-2-oxo-6,7-dihydro-2H-pyrido[2,1-a]isoquinoline-3-carboxylate] | 50 to 100 | 0.129
11 | CCOC(=O)CCCn1cc(-c2cc3c(cc2OC)-c2cc(=O)c(C(=O)OCC)cn2C(C(C)(C)C)C3)ccc1=O (stereo not shown) [Example 75, Ethyl 6-(tert-butyl)-9-(1-(4-ethoxy-4-oxobutyl)-6-oxo-1,6-dihydropyridin-3-yl)-10-methoxy-2-oxo-6,7-dihydro-2H-pyrido[2,1-a]isoquinoline-3-carboxylate] | 50 to 100 | 0.466
